Results taken from patent US4293694A, “Pyrido[3,2,1-jk]carbazols” (Otsuka Pharmaceutical Co., Ltd., priority 1979, dated 1981).
≈ marks a conversion by molar mass, not a printed value. Like-named read-outs stand apart in the source and are kept apart here.

Columns and labels:
[1] = tested on: Enterbactor aerogenes IFO 12979; experiment: Antimicrobial activity, serial dilution method on agar plate; assay type: cell-based; details: read-out: Minimum Inhibitory Concentration (MIC)
Enterbactor cloacae 2 = experiment: as above; assay type: cell-based; details: read-out: Minimum Inhibitory Concentration (MIC)
[2] = tested on: Serratia marcescens ATCC 14756; experiment: as above; assay type: cell-based; details: ATCC14756, read-out: Minimum Inhibitory Concentration (MIC)
[3] = tested on: Staphyrococcus aureus Newmann; experiment: as above; assay type: cell-based; details: read-out: Minimum Inhibitory Concentration (MIC)
[4] = tested on: Bacillus subtilis ATCC 6633; experiment: as above; assay type: cell-based; details: ATCC6633, read-out: Minimum Inhibitory Concentration (MIC)
[5] = tested on: Salmonella typhimurium kh; experiment: as above; assay type: cell-based; details: Salmonella enterica, read-out: Minimum Inhibitory Concentration (MIC)
Proteus mirabilis 1287 = experiment: as above; assay type: cell-based; details: read-out: Minimum Inhibitory Concentration (MIC)
[6] = tested on: Streptococcus faecalis IFO 12580; experiment: as above; assay type: cell-based; details: Enterococcus faecalis, IFO12580, read-out: Minimum Inhibitory Concentration (MIC)
Bacillus anthracis = experiment: microbe, parasite or virus in culture; assay type: cell-based; details: read-out: Minimum Inhibitory Concentration (MIC)
[7] = tested on: Esherichia coli NIHJ JC-2; experiment: Antimicrobial activity, serial dilution method on agar plate; assay type: cell-based; details: read-out: Minimum Inhibitory Concentration (MIC)
Esherichia coli NIHJ = experiment: as above; assay type: cell-based; details: read-out: Minimum Inhibitory Concentration (MIC)
Sarcina lutea ATCC 9341 = experiment: as above; assay type: cell-based; details: Micrococcus luteus, ATCC9341, read-out: Minimum Inhibitory Concentration (MIC)
Candida albicans KYU = experiment: as above; assay type: cell-based; details: read-out: Minimum Inhibitory Concentration (MIC)
[8] = tested on: Staphyrococcus aureus FDA 209p; experiment: as above; assay type: cell-based; details: read-out: Minimum Inhibitory Concentration (MIC)
[9] = tested on: Klebsiella pneumoniae ST-101; experiment: as above; assay type: cell-based; details: ST101, read-out: Minimum Inhibitory Concentration (MIC)
[10] = tested on: Bacillus cereus ATCC 11778; experiment: as above; assay type: cell-based; details: ATCC11778, read-out: Minimum Inhibitory Concentration (MIC)
Streptomyces viridans = experiment: as above; assay type: cell-based; details: read-out: Minimum Inhibitory Concentration (MIC)
[11] = tested on: Micrococcus flavus ATCC 10240a; experiment: as above; assay type: cell-based; details: ATCC10240A, read-out: Minimum Inhibitory Concentration (MIC)
[12] = tested on: Pseudomonas aeruginosa ATCC 10145; experiment: as above; assay type: cell-based; details: ATCC10145, read-out: Minimum Inhibitory Concentration (MIC)
Acute toxicity = details: rat, in vivo, rats, dd strain, 18 to 22 g, fasted 12 hours
Method: Further, the acute toxicity of the compounds of the present invention having the formula (I) was determined by intravenous administration (i.v.) and oral administration (p.o.) in 5 to 6 groups of rats (dd strain; body weight, 18 to 22 g; 10 rats in each group) which had been fasted for 12 hours prior to the test.

[13] = iv, read-out: LD50 (50% lethal dose), i.v.
[14] = po, read-out: LD50 (50% lethal dose), p.o.

SMILES | MIC [1] | MIC (Enterbactor cloacae 2) | MIC [2] | MIC [3] | MIC [4] | MIC [5] | MIC (Proteus mirabilis 1287) | MIC [6] | MIC (Bacillus anthracis) | MIC [7] | MIC (Esherichia coli NIHJ) | MIC (Sarcina lutea ATCC 9341) | MIC (Candida albicans KYU) | MIC [8] | MIC [9] | MIC [10] | MIC (Streptomyces viridans) | MIC [11] | MIC [12] | LD50 (Acute toxicity; [13]) | also measured
CCn1cc(C(=O)O)c(=O)c2ccc(C)nc21 [Compound 13, 1-ethyl-1,4-dihydro-7-methyl-4-one-1,8-naphthyridine-3-carboxylic acid, reference compound] | 6.3 µg/mL (≈ 27.1 µM) | 12.5 µg/mL (≈ 53.8 µM) | 3.2 µg/mL (≈ 13.8 µM) | 50 µg/mL (≈ 215 µM) | 6.3 µg/mL (≈ 27.1 µM) | 6.3 µg/mL (≈ 27.1 µM) | 25 µg/mL (≈ 108 µM) | > 100 µg/mL | 12.5 µg/mL (≈ 53.8 µM) | 6.3 µg/mL (≈ 27.1 µM) | 12.5 µg/mL (≈ 53.8 µM) | > 100 µg/mL | > 500 µg/mL | 50 µg/mL (≈ 215 µM) | 12.5 µg/mL (≈ 53.8 µM) | 50 µg/mL (≈ 215 µM) | > 100 µg/mL | > 100 µg/mL | > 100 µg/mL |  | 
O=C(OCCBr)c1cn2c3c(cc(F)cc3c1=O)C1CCCCC12 (stereo not drawn) [Compound 9, β-bromoethyl 2-fluoro-7a,8,9,10,11,11a-hexahydro-4-oxo-4H-pyrido[3,2,1-jk]carbazol-5-carboxylate] | 25 µg/mL (≈ 63.4 µM) | 12.5 µg/mL (≈ 31.7 µM) | 12.5 µg/mL (≈ 31.7 µM) | 50 µg/mL (≈ 127 µM) | 12.5 µg/mL (≈ 31.7 µM) | 25 µg/mL (≈ 63.4 µM) | 50 µg/mL (≈ 127 µM) | > 100 µg/mL | 50 µg/mL (≈ 127 µM) | 25 µg/mL (≈ 63.4 µM) | 25 µg/mL (≈ 63.4 µM) | 100 µg/mL (≈ 254 µM) | > 500 µg/mL | 50 µg/mL (≈ 127 µM) | 25 µg/mL (≈ 63.4 µM) | 100 µg/mL (≈ 254 µM) | > 100 µg/mL | 100 µg/mL (≈ 254 µM) | > 100 µg/mL | 105 mg/kg | LD50 (Acute toxicity; [14]): 3000 mg/kg
CC(=O)Nc1ccc2c3c1c(=O)c(C(=O)O)cn3C1CCCCC21 (stereo not shown) [Compound 8, 3-acetylamino-7a,8,9,10,11,11a-hexahydro-4-oxo-4H-pyrido[3,2,1-jk]carbazol-5-carboxylic acid] | 6.3 µg/mL (≈ 19.3 µM) | 6.3 µg/mL (≈ 19.3 µM) | 3.2 µg/mL (≈ 9.81 µM) | 12.5 µg/mL (≈ 38.3 µM) | 3.2 µg/mL (≈ 9.81 µM) | 6.3 µg/mL (≈ 19.3 µM) | 25 µg/mL (≈ 76.6 µM) | 100 µg/mL (≈ 306 µM) | 6.3 µg/mL (≈ 19.3 µM) | 12.5 µg/mL (≈ 38.3 µM) | 12.5 µg/mL (≈ 38.3 µM) | 50 µg/mL (≈ 153 µM) | > 500 µg/mL | 12.5 µg/mL (≈ 38.3 µM) | 6.3 µg/mL (≈ 19.3 µM) | 50 µg/mL (≈ 153 µM) | 100 µg/mL (≈ 306 µM) | 50 µg/mL (≈ 153 µM) | > 100 µg/mL | 110 mg/kg | LD50 (Acute toxicity; [14]): 3500 mg/kg
O=C(NN=Cc1ccc([N+](=O)[O-])o1)c1cn2c3c(cc(F)cc3c1=O)C1CCCCC12 (stereo not shown) [Compound 11] | 6.3 µg/mL (≈ 14.8 µM) | 6.3 µg/mL (≈ 14.8 µM) | 12.5 µg/mL (≈ 29.5 µM) | 12.5 µg/mL (≈ 29.5 µM) | 3.2 µg/mL (≈ 7.54 µM) | 12.5 µg/mL (≈ 29.5 µM) | 12.5 µg/mL (≈ 29.5 µM) | > 100 µg/mL | 6.3 µg/mL (≈ 14.8 µM) | 12.5 µg/mL (≈ 29.5 µM) | 12.5 µg/mL (≈ 29.5 µM) | 100 µg/mL (≈ 236 µM) | > 500 µg/mL | 12.5 µg/mL (≈ 29.5 µM) | 6.3 µg/mL (≈ 14.8 µM) | 12.5 µg/mL (≈ 29.5 µM) | > 100 µg/mL | 100 µg/mL (≈ 236 µM) | > 100 µg/mL | 180 mg/kg | LD50 (Acute toxicity; [14]): 3000 mg/kg
NNC(=O)c1cn2c3c(cc(F)cc3c1=O)C1CCCCC12 (stereo not shown) [Compound 10, 2-Fluoro-7a,8,9,10,11,11a-hexahydro-4-oxo-4H-pyrido[3,2,1-jk]carbazol-5-carbohydrazide] | 12.5 µg/mL (≈ 41.5 µM) | 12.5 µg/mL (≈ 41.5 µM) | 25 µg/mL (≈ 83 µM) | 50 µg/mL (≈ 166 µM) | 25 µg/mL (≈ 83 µM) | 25 µg/mL (≈ 83 µM) | 50 µg/mL (≈ 166 µM) | > 100 µg/mL | 100 µg/mL (≈ 332 µM) | 25 µg/mL (≈ 83 µM) | 25 µg/mL (≈ 83 µM) | > 100 µg/mL | > 500 µg/mL | 50 µg/mL (≈ 166 µM) | 12.5 µg/mL (≈ 41.5 µM) | 100 µg/mL (≈ 332 µM) | > 100 µg/mL | > 100 µg/mL | > 100 µg/mL | 100 mg/kg | LD50 (Acute toxicity; [14]): 3500 mg/kg
CCOC(=O)c1cn2c3c(cc(F)cc3c1=O)C1CCCCC12 (stereo not shown) [Compound 3, ethyl 2-fluoro-7a,8,9,10,11,11a-hexahydro-4-oxo-4H-pyrido-[3,2,1-jk]carbazol-5-carboxylate] | 25 µg/mL (≈ 79.3 µM) | 12.5 µg/mL (≈ 39.6 µM) | 25 µg/mL (≈ 79.3 µM) | 25 µg/mL (≈ 79.3 µM) | 6.3 µg/mL (≈ 20 µM) | 25 µg/mL (≈ 79.3 µM) | 25 µg/mL (≈ 79.3 µM) | > 100 µg/mL | 50 µg/mL (≈ 159 µM) | 12.5 µg/mL (≈ 39.6 µM) | 25 µg/mL (≈ 79.3 µM) | 100 µg/mL (≈ 317 µM) | > 500 µg/mL | 25 µg/mL (≈ 79.3 µM) | 12.5 µg/mL (≈ 39.6 µM) | 100 µg/mL (≈ 317 µM) | > 100 µg/mL | 100 µg/mL (≈ 317 µM) | > 100 µg/mL | 80 mg/kg | LD50 (Acute toxicity; [14]): 3000 mg/kg
